Test results from patent US10570131B2, “Heterocyclic compounds and their use in preventing or treating bacterial infections” (MUTABILIS, priority 2015, dated 2020).

How the values were obtained:
Type in all cases: cell-based
K. pneumoniae 6299 [1] = assay: MIC of ceftazidime alone and in combination with compounds (synergy), broth microdilution
Experimental: (§1) Compounds of the present invention were assessed against genotyped bacterial strains alone or in combination with the β-lactam ceftazidime (CAZ). […] Briefly, compounds alone according to the invention were prepared in DMSO and spotted (2 μL each) on sterile polystyrene plates (Corning, 3788). […] Log phase bacterial suspensions were adjusted to a final density of 5×10^5 cfu/mL in cation-adjusted Mueller-Hinton broth (Becton-Dickinson) and added to each well (98 μL). Microplates were incubated for 16-20 h at 35° C. in ambient air. The MIC of the compounds was defined as the lowest concentration of said compounds that prevented bacterial growth as read by visual inspection.

P. aeruginosa UFR48 = assay: as above; settings: Pseudomonas aeruginosa, UFR48, read-out: MIC of CAZ
Experimental: as §1

K. pneumoniae 6299 [2] = assay: microbe, parasite or virus in culture; settings: strain 6299 (TEM-1, SHV-11, OXA-163)
Experimental: as §1

K. pneumoniae BAA-1898 [3] = assay: microbe, parasite or virus in culture; settings: strain BAA-1898 (TEM-1, SHV-11, SHV-12, KPC-2)
Experimental: as §1

E. coli 131119 = assay: microbe, parasite or virus in culture; settings: strain 131119 (TEM-1, OXA-48)
Experimental: as §1

P. aeruginosa CIP105250 [4] = assay: microbe, parasite or virus in culture; settings: strain CIP105250 (OXA-15)
Experimental: as §1

K. pneumoniae BAA-1898 [5] = assay: MIC of ceftazidime alone and in combination with compounds (synergy), broth microdilution; settings: MIC of ceftazidime with compound fixed at 4 μg/mL; strain BAA-1898 (TEM-1, SHV-11, SHV-12, KPC-2)
Experimental: as §1

P. aeruginosa CIP105250 [6] = assay: as above; settings: MIC of ceftazidime with compound fixed at 4 μg/mL; strain CIP105250 (OXA-15)
Experimental: as §1

P. aeruginosa CIP107051 [7] = assay: as above; settings: MIC of ceftazidime with compound fixed at 4 μg/mL; strain CIP107051 (TEM-24)
Experimental: as §1

K. pneumoniae 160143 = assay: MIC of compounds alone, broth microdilution; settings: strain 160143 (TEM-1, SHV-1, CTX-M-15, KPC-2, OXA-1)
Experimental: as §1

E. cloacae UFR85 = assay: MIC of compounds alone, broth microdilution; settings: strain UFR85 (TEM-1, CTX-M-15, derepressed AmpC)
Experimental: as §1

E. coli UFR18 = assay: MIC of compounds alone, broth microdilution; settings: strain UFR18 (CTX-M-15, OXA-204)
Experimental: as §1

E. cloacae UFR70 = assay: MIC of compounds alone, broth microdilution; settings: strain UFR70 (TEM-1, CTX-M-15, CMY-2, OXA-1, Porin loss)
Experimental: as §1

E. coli UFR61O = assay: MIC of compounds alone, broth microdilution; settings: strain UFR61O (TEM-1, KPC-2)
Experimental: as §1

E. coli 190317 [8] = assay: MIC of compounds alone, broth microdilution; settings: strain 190317 (TEM-1, SHV-12, CTX-M-15, OXA-1)
Experimental: as §1

E. coli UFR32 = assay: MIC of compounds alone, broth microdilution; settings: strain UFR32 (TEM-1, VEB-1, OXA-10)
Experimental: as §1

C. murliniae 210102 = assay: MIC of compounds alone, broth microdilution; settings: strain 210102 (VIM-4)
Experimental: as §1

E. cloacae 260508 = assay: MIC of compounds alone, broth microdilution; settings: strain 260508 (TEM-1, CTX-M-15)
Experimental: as §1

E. cloacae P99 [9] = assay: MIC of compounds alone, broth microdilution; settings: strain P99 (AmpC)
Experimental: as §1

K. oxytoca UFR21 = assay: MIC of compounds alone, broth microdilution; settings: strain UFR21 (TEM-1, CTX-M-15, OXA-48)
Experimental: as §1

K. pneumoniae 200047 = assay: MIC of compounds alone, broth microdilution; settings: strain 200047 (TEM-1, SHV-32, CTX-M-15, OXA-1)
Experimental: as §1

E. coli RGN238 = assay: MIC of compounds alone, broth microdilution; settings: strain RGN238 (OXA-1)
Experimental: as §1

P. aeruginosa CIP107051 [10] = assay: MIC of compounds alone, broth microdilution; settings: strain CIP107051 (TEM-24)
Experimental: as §1

E. coli UFR52 = assay: MIC of compounds alone, broth microdilution; settings: strain UFR52 (TEM-1, SHV-12, IMP-8)
Experimental: as §1

K. pneumoniae UFR68 = assay: MIC of compounds alone, broth microdilution; settings: strain UFR68 (TEM-1, SHV-11, CTX-M-15, KPC-3)
Experimental: as §1

E. cloacae UFR38 = assay: MIC of compounds alone, broth microdilution; settings: strain UFR38 (CTX-M-15, NDM-1)
Experimental: as §1

K. pneumoniae UFR77 = assay: MIC of compounds alone, broth microdilution; settings: strain UFR77 (CMY-2)
Experimental: as §1

K. pneumoniae UFR24 = assay: MIC of compounds alone, broth microdilution; settings: strain UFR24 (TEM-1, SHV-2, SHV-11, OXA-1, OXA-48, OXA-47)
Experimental: as §1

E. coli UFR74 = assay: MIC of compounds alone, broth microdilution; settings: strain UFR74 (SHV-1, DHA-1)
Experimental: as §1

E. coli 190317 [11] = assay: MIC of ceftazidime alone and in combination with compounds (synergy), broth microdilution; settings: MIC of ceftazidime with compound fixed at 4 μg/mL; strain 190317 (TEM-1, SHV-12, CTX-M-15, OXA-1)
E. cloacae P99 [12] = assay: as above; settings: MIC of ceftazidime with compound fixed at 4 μg/mL; strain P99 (AmpC)

CC(C)(O/N=C(\C(=O)N[C@@H]1C(=O)N2C(C(=O)[O-])=C(C[n+]3ccccc3)CS[C@H]12)c1csc(N)n1)C(=O)O [CAZ, ceftazidime, reference compound]
256 µg/mL: MIC (K. pneumoniae 6299 [1]; Klebsiella pneumoniae, 6299, read-out: MIC of CAZ) | MIC (P. aeruginosa UFR48)

NCCON=C1C[C@@H](C(N)=O)N2C[C@@H]1N(OS(=O)(=O)[O-])C2=O.O=C(O)C(F)(F)F.[Na+] [Example 4, sodium and 2,2,2-trifluoroacetate [(2S, 5S)-4-(2-ammoniumethoxyimino)-2-carbamoyl-7-oxo-1,6-diazabicyclo[3.2.1]octan-6-yl] sulfate]
16 µg/mL: MIC compounds of the invention alone (E. cloacae 260508) | MIC compounds of the invention alone (E. cloacae P99 [9])
2 µg/mL: MIC compounds of the invention alone (E. cloacae UFR38)
≤0.125 µg/mL: MIC, combination of CAZ and compounds of the invention at 4 μg/mL (K. pneumoniae BAA-1898 [5])
4 µg/mL: MIC compounds of the invention alone (E. coli UFR18) | MIC compounds of the invention alone (E. coli 190317 [8]) | MIC compounds of the invention alone (E. coli UFR32)
8 µg/mL: MIC, combination of CAZ and compounds of the invention at 4 μg/mL (P. aeruginosa CIP105250 [6]) | MIC, combination of CAZ and compounds of the invention at 4 μg/mL (P. aeruginosa CIP107051 [7]) | MIC compounds of the invention alone (E. coli UFR52)
<0.25 µg/mL: MIC, combination of CAZ and compounds of the invention at 4 μg/mL (E. coli 190317 [11])
>32 µg/mL: MIC compounds of the invention alone (K. pneumoniae 6299 [2]) | MIC compounds of the invention alone (K. pneumoniae BAA-1898 [3]) | MIC compounds of the invention alone (E. coli 131119) | MIC compounds of the invention alone (P. aeruginosa CIP105250 [4]) | MIC compounds of the invention alone (K. pneumoniae 160143) | MIC compounds of the invention alone (E. cloacae UFR85) | MIC compounds of the invention alone (E. cloacae UFR70) | MIC compounds of the invention alone (E. coli UFR61O) | MIC compounds of the invention alone (C. murliniae 210102) | MIC compounds of the invention alone (K. oxytoca UFR21) | MIC compounds of the invention alone (K. pneumoniae 200047) | MIC compounds of the invention alone (E. coli RGN238) | MIC compounds of the invention alone (K. pneumoniae UFR68) | MIC compounds of the invention alone (K. pneumoniae UFR77) | MIC compounds of the invention alone (K. pneumoniae UFR24) | MIC compounds of the invention alone (E. coli UFR74)
32 µg/mL: MIC compounds of the invention alone (P. aeruginosa CIP107051 [10])
0.25 µg/mL: MIC, combination of CAZ and compounds of the invention at 4 μg/mL (K. pneumoniae 6299 [1]; MIC of ceftazidime with compound fixed at 4 μg/mL, strain 6299 (TEM-1, SHV-11, OXA-163)) | MIC, combination of CAZ and compounds of the invention at 4 μg/mL (E. cloacae P99 [12])
